Results reported in US8748566B2, “Pharmacologically active antiviral peptides and methods of use” (priority 2000, dated 2014).
Peptide text beside a SMILES is read from it. * marks the point of attachment. Biotin = O=C1N[C@H]2[C@H](CS[C@H]2CCCCC(=O)*)N1; Ahx = NCCCCCC(=O)O

Tests used:
Format in all cases: cell-based
HSV-1 KOS [1] = assay: Plaque reduction assay, HSV-1 KOS infection of Vero cell cultures; conditions: for antiviral activity compared with EB: plaque reduction (FIG. 1D, FIG. 2)
Experimental: The procedures for growing Vero cells and preparing high titer stocks of HSV-1 KOS as described in (Grau et al., Invest. Ophthal. and Vis. Sci. 30: 2474 (1989)) were utilized. Vero cells were maintained in carbonate-buffered DMEM supplemented with 5% calf serum and 5% fetal bovine serum (regular medium). For some studies, cells were switched to serum-free DMEM buffered with 25 mM Hepes (pH 7.4) and allowed to adapt to that medium for 30 min prior to experimental treatments. Vero cells were seeded into wells (0.28 cm^2) of microtiter plates either at 3.5×10^4 cells/well for use 1 day later (8×10^4 cells/well) or at 1×10^4 cells/well for use 3 days later (2×10^5 cells/well).
Confluent Vero cell cultures in microtiter plates were infected for 1 hour at 37° C. in 40 μl of medium. Except where indicated, peptide treatments in 40 μl of medium lasted from 1 hour before through 1 hour after infection. At the end of the adsorption period, the cultures were re-fed with 100 μl of regular medium. Plaque formation was scored 2 days later and the number of plaques scored per well was normalized to the number counted in the absence of peptide. Using an ocular micrometer, plaque size ([…]) was determined by measuring the largest plaque diameter (L) and the diameter at a 90° angle to that (S). The size of each of the first 40 scored plaques was measured except when a plaque included less than 10 rounded cells or touched the side of the well.

hrR3 [2] = assay: LacZ+ virus (hrR3) entry assay; conditions: Table 3; read-out: Entry Blocking Activity (IC50)
Experimental: Confluent Vero cell cultures in 96-well microtiter plates were switched to Hepes-buffered serum-free DMEM, cooled on ice to 4° C. for 30 min, and infected with hrR3 for 1 hour at 4° C. in 40 μl of medium. Unattached virus was removed by rinsing with ice-cold medium. Treatments with antiviral peptide SEQ ID NO:1, referred to as EB, or a control peptide which comprised the RRKK tetra-peptide (SEQ ID NO:16) attached to a scrambled version of the membrane transiting peptide RRKKLAALPLVLAAPLAVLA (SEQ ID NO:17) (referred to as EBX), or mock-treatments with peptide-free medium were carried out in serum-free DMEM as indicated. Virus entry was initiated by transferring cultures to 37° C. To inactivate any remaining extracellular virus, cultures were rinsed with PBS and exposed to low pH citrate buffer (40 mM citric acid, 10 mM KCl, 135 mM NaCl, pH 3.0, according to Highlander et al., J. Virol. 61:3356 (1987), for 1 min at 23° C. The citrate was rinsed off with PBS and cultures were maintained in serum-supplemented DMEM until they were fixed with 0.5% gluteraldehyde in 5×PBS for 30 min at 23° C., stained for β-galactosidase activity for 1 hour or overnight at 23° C. with X-gal (Fisher Biotech; BP 1615-1) in 1×PBS containing […], 1.3 mM K4Fe(CN)6, and 1.3 mM K3Fe(CN)6, and scored for the presence of blue lacZ^+ cells.
In these studies, the hrR3 virus was pre-adsorbed to cells for 1 hour at 4° C. before ice cold 25 μM EB or EBX were added in serum-free DMEM. After an additional 1 hour at 4° C., cultures were shifted to 37° C. to initiate virus entry. At 15 min intervals following the temperature shift, any virus remaining outside the cells was inactivated by washing the cultures with low pH citrate buffer. Cultures were then rinsed and returned to peptide-free serum-supplemented DMEM until they were fixed and stained for f-galactosidase 8 hours after the temperature shift.
This conclusion is strengthened by the finding that the EB-sensitive phase of infection with pre-adsorbed virus clearly precedes expression of lacZ genes in hrR3 infected cells (FIG. 7A). Again, hrR3 was pre-adsorbed to cells for 1 hour at 4° C., unattached virus was rinsed off, and cells were kept for an additional hour at 4° C. Cultures were then transferred to 23° C. for 30 min before they were switched to 37° C. The more gradual change to 37° C. allowed cell layers to remain intact through subsequent frequent medium changes. Immediately following viral adsorption, cells were treated with 50 μM EB for 1 hour periods at consecutive 1 hour intervals. Between 1 and 4 hours post-infection, virus entry was inhibited by 70-80%. […] Parallel cultures were immediately fixed after mock-treatments and stained with X-gal. In these cultures, blue (lacZ^+) cells first appeared 7 hours post-infection and their number increased nearly linearly for the next 3 hours (FIG. 7A, (∘)). By 7 hours post-infection, EB ceased to be inhibitory.

hrR3 [3] = assay: Virucidal assay
Experimental: […] The treated virus was diluted 200-fold with serum-supplemented DMEM and assayed for infectivity approximately 1 hour later in microtiter wells seeded with Vero cells (3.5×10^4 cells/well) 1 d earlier. Forty or 100 microliter volumes of diluted virus were adsorbed for 1 or 2 h at 37° C. and lacZ^+ cells were scored 8 hours later. In some experiments, aliquots of diluted virus were first dialyzed (Spectra/Por; MWCO 12-14,000) overnight at 4° C. against a 60-fold excess volume of Hepes-buffered serum-supplemented DMEM or forced by syringe through 0.22 μm membranes (Millex-GV; Millipore) before the remaining infectious virus was assayed.

virus = assay: Anti-free virus activity (Table 3)
HSV-1 KOS [4] = assay: Yield reduction assay (virus production in infected Vero cells)
Experimental: Three days post-infection, Vero cell cultures in microtiter plates were frozen (−80° C.) and thawed (37° C.) three times. Cells were suspended by repeated pipetting and microtiter plates were spun for 10 min at 700×g in a Beckman model TJ-6 tabletop centrifuge. The virus-containing supernates were serially diluted in regular medium and titered on Vero cells. Plaques were counted after staining the monolayers with crystal violet as taught by Grau et al., Invest. Ophthalmol. Vis. Sci. 30:2474 (1989).
Vero cell cultures as prepared in Example 1 were infected with HSV-1 and assayed for virus production as described in Example 1. The antiviral activity of an antiviral peptide according to the present invention EB (SEQ ID NO:1) was compared to the antiviral activity of the current HSV antiviral nucleoside standard, acyclovir. The two peptides were added to the Vero cells one hour prior to infection with HSV.

[5] = 4° C., read-out: Virucidal Activity 4° C. (IC50)
[6] = 37° C., read-out: Virucidal Activity 37° C. (IC50)

## CC(C)C[C@H](NC(=O)[C@H](C)NC(=O)[C@H](CC(C)C)NC(=O)[C@H](CC(C)C)NC(=O)[C@@H](NC(=O)[C@H](C)NC(=O)[C@@H]1CCCN1C(=O)[C@H](CC(C)C)NC(=O)[C@H](CC(C)C)NC(=O)[C@H](C)NC(=O)[C@@H](NC(=O)[C@H](C)NC(=O)[C@H](C)NC(=O)[C@H](CCCCN)NC(=O)[C@H](CCCCN)NC(=O)[C@H](CCCNC(=N)N)NC(=O)[C@H](CCCNC(=N)N)NC(=O)CCCCCNC(=O)CCCC[C@@H]1SC[C@@H]2NC(=O)N[C@@H]21)C(C)C)C(C)C)C(=O)N[C@@H](CC(C)C)C(=O)N[C@@H](C)C(=O)N1CCC[C@H]1C(=O)O [bEB] ({Biotin-Ahx}-RRKKAAVALLPAVLLALLAP-OH)
HSV-1 KOS [1]
  antiviral activity compared with EB: essentially as effective as EB
hrR3 [2]
  IC50: 15 µM
hrR3 [3]; [5]
  IC50: 110 µM
hrR3 [3]; [6]
  IC50: 35 µM
virus
  IC50: 21 µM

## N=C(N)NCCC[C@H](NC(=O)[C@@H](N)CCCNC(=N)N)C(=O)N[C@@H](CCCCN)C(=O)N[C@@H](CCCCN)C(=O)O [R-R-K-K tetramer, R-R-K-K, reference compound] (H-RRKK-OH; N-terminus and C-terminus assumed)
HSV-1 KOS [1]; presence of serum, concentrations as high as 200 μM (FIG. 1A)
  antiviral activity: no antiviral activity

## RQIKIWFPNRRMKWKK [bHOMd]
hrR3 [2]
  IC50: 7 µM
hrR3 [3]; 4° C.
  Virucidal Activity 4° C. (IC50): None
hrR3 [3]; [6]
  IC50: 115 µM

## CC(C)C[C@H](NC(=O)[C@H](C)NC(=O)[C@H](CCCCN)NC(=O)[C@H](CC(C)C)NC(=O)[C@H](C)NC(=O)[C@H](CC(C)C)NC(=O)[C@H](CCCCN)NC(=O)[C@H](CC(C)C)NC(=O)[C@H](C)NC(=O)[C@H](CC(C)C)NC(=O)[C@H](CCCCN)NC(=O)CCCCCNC(=O)CCCC[C@@H]1SC[C@@H]2NC(=O)N[C@@H]21)C(=O)N[C@@H](CCCCN)C(=O)N[C@@H](C)C(=O)N[C@@H](C)C(=O)N[C@@H](CC(C)C)C(=O)N[C@@H](CCCCN)C(=O)N[C@@H](CC(C)C)C(=O)N[C@@H](C)C(N)=O [bKLA, b-KLALKLALKALKAALKLA-amide]
hrR3 [2]
  IC50: 11 µM
hrR3 [3]; [5]
  IC50: 45 µM
virus
  IC50: 4.5 µM

## CC[C@H](C)[C@H](NC(=O)[C@H](CCCCN)NC(=O)[C@@H](NC(=O)[C@H](CCC(N)=O)NC(=O)[C@H](CCCNC(=N)N)NC(=O)CCCCCNC(=O)CCCC[C@@H]1SC[C@@H]2NC(=O)N[C@@H]21)[C@@H](C)CC)C(=O)N[C@@H](Cc1c[nH]c2ccccc12)C(=O)N[C@@H](Cc1ccccc1)C(=O)N1CCC[C@H]1C(=O)N[C@@H](CC(N)=O)C(=O)N[C@@H](CCCNC(=N)N)C(=O)N[C@@H](CCCNC(=N)N)C(=O)N[C@@H](CCSC)C(=O)N[C@@H](CCCCN)C(=O)N[C@@H](Cc1c[nH]c2ccccc12)C(=O)N[C@@H](CCCCN)C(=O)N[C@@H](CCCCN)C(=O)N1CCC[C@H]1C(=O)NCC(=O)N[C@@H](Cc1ccc(O)cc1)C(=O)N[C@@H](C)C(=O)NCC(=O)N[C@@H](C)C(=O)N[C@H](C(=O)N[C@H](C(=O)N[C@@H](CC(N)=O)C(=O)N[C@@H](CC(=O)O)C(=O)N[C@@H](CC(C)C)C(=O)O)C(C)C)C(C)C [bHOM-9, b-RQIKIWFPNRRMKWKK-9] ({Biotin-Ahx}-RQIKIWFPNRRMKWKKPGYAGAVVNDL-OH)
hrR3 [2]
  IC50: 9 to 12 µM
hrR3 [3]; 4° C.
  Virucidal Activity 4° C. (IC50): None
hrR3 [3]; [6]
  IC50: 115 µM
virus
  IC50: 6 µM

## Nc1nc2c(ncn2COCCO)c(=O)[nH]1 [acyclovir, reference compound]
HSV-1 KOS [4]; added one hour prior to infection, EB statement for concentrations exceeding 10 μM (FIG. 3)
  antiviral activity, EB compared with acyclovir: highest antiviral activity at low dosages

## CC[C@H](C)[C@H](NC(=O)[C@H](CCCCN)NC(=O)[C@@H](NC(=O)[C@H](CCC(N)=O)NC(=O)[C@H](CCCNC(=N)N)NC(=O)CCCCCNC(=O)CCCC[C@@H]1SC[C@@H]2NC(=O)N[C@@H]21)[C@@H](C)CC)C(=O)N[C@@H](Cc1ccccc1)C(=O)N[C@@H](Cc1ccccc1)C(=O)N1CCC[C@H]1C(=O)N[C@@H](CC(N)=O)C(=O)N[C@@H](CCCNC(=N)N)C(=O)N[C@@H](CCCNC(=N)N)C(=O)N[C@@H](CCSC)C(=O)N[C@@H](CCCCN)C(=O)N[C@@H](Cc1ccccc1)C(=O)N[C@@H](CCCCN)C(=O)N[C@@H](CCCCN)C(N)=O [bHOMFF, b-RQIKI F FPNRRMK F KK-amide] ({Biotin-Ahx}-RQIKIFFPNRRMKFKK-NH2)
hrR3 [2]
  IC50: 40 µM
hrR3 [3]; 4° C.
  Virucidal Activity 4° C. (IC50): None
hrR3 [3]; 37° C.
  Virucidal Activity 37° C. (IC50): None
virus
  IC50: 34 µM

## NH2-RRKKAAVALLAV LLALLAPP-COOH (H-RRKKAAVALLAVLLALLAPP-OH) [EBPP]
HSV-1 KOS [1]
  antiviral activity compared with EB: twice as active
HSV-1 KOS [4]; yield reduction (FIG. 1E; data not shown)
  antiviral activity compared with EB: twice as active

## b-YGRKKRRQRRR-9x [bTAT-9x]
hrR3 [2]
  IC50: 67 µM
hrR3 [3]; 4° C.
  Virucidal Activity 4° C. (IC50): None
hrR3 [3]; 37° C.
  Virucidal Activity 37° C. (IC50): None

## CC(C)C[C@H](NC(=O)[C@H](CC(=O)O)NC(=O)[C@H](CC(N)=O)NC(=O)[C@@H](NC(=O)[C@@H](NC(=O)[C@H](C)NC(=O)CNC(=O)[C@H](C)NC(=O)[C@H](Cc1ccc(O)cc1)NC(=O)CNC(=O)[C@@H]1CCCN1C(=O)[C@H](CCCNC(=N)N)NC(=O)[C@H](CCCNC(=N)N)NC(=O)[C@H](CCCNC(=N)N)NC(=O)[C@H](CCC(N)=O)NC(=O)[C@H](CCCNC(=N)N)NC(=O)[C@H](CCCNC(=N)N)NC(=O)[C@H](CCCCN)NC(=O)[C@H](CCCCN)NC(=O)[C@H](CCCNC(=N)N)NC(=O)CNC(=O)[C@H](Cc1ccc(O)cc1)NC(=O)CCCCCNC(=O)CCCC[C@@H]1SC[C@@H]2NC(=O)N[C@@H]21)C(C)C)C(C)C)C(=O)O [bTAT-9, b-YGRKKRRQRRR-9] ({Biotin-Ahx}-YGRKKRRQRRRPGYAGAVVNDL-OH)
hrR3 [2]
  IC50: 26 µM
hrR3 [3]; 4° C.
  Virucidal Activity 4° C. (IC50): None
hrR3 [3]; 37° C.
  Virucidal Activity 37° C. (IC50): None
virus
  IC50: 8 µM
